Measured values: patent US8198317B2, “Methylenedioxy phenolic compounds and their use to treat disease” (The Ohio State University Research Foundation, priority 2008, dated 2012)

Assays:
Humans [1] = assay: Treatment of established atherosclerosis in humans (Example 21); format: in vivo, human; details: oral, in excess of 12 months
Source text: Individuals with established atherosclerosis with evidence of plaque in the coronary arteries, carotid arteries or peripheral arteries are known to be at risk for future cardiovascular events such as heart attacks and strokes. These individuals are on treatments such as statins and anti-hypertensive agents such as ACE inhibitors, diuretics or calcium channel blockers. They also will receive an acceptable dose of a composition comprising a compound of the present invention in an acceptable carrier orally and chronically for durations in excess of 12 months. In one study, 3,4-methylenedioxy phenyl acetate (INV 73); 3,4-methylenedioxy-6-nitrophenol (INV 74); 3,4-methylenedioxy-6-nitrophenyl acetate (INV 75); 3,4-Methylenedioxy 6-nitro phenyl lipoate (INV-7465) or 3,4-Methylenedioxy phenyl lipoate (INV-7065) are administered to these individuals. A repeat IVUS measurement is made at the end of the treatment period to assess the effect of the infusion of the composition on coronary atherosclerosis in the target vessel.

Humans [2] = assay: Prevention or delay of onset of atherosclerosis in humans (Example 23); format: in vivo, human; details: 2 mg/kg to 50 mg/kg iv or im, one to six months
Method: Individuals with documented risk factors for atherosclerosis and having high plasma cholesterol levels have a ultrasound analysis of the coronary (IVUS), carotid (IMT) or popliteal arteries to establish a baseline measurement. A portion of these individuals are […] administered a composition comprising a compound of the present invention in an acceptable carrier at a dose of 2 mg/kg to 50 mg/kg intravenously (iv) or intramuscular (im) I to 3 times per week over a period of approximately one to six months. The following compounds are administered to these individuals: 3,4-methylenedioxy phenyl acetate (INV 73); 3,4-methylenedioxy-6-nitrophenol (INV 74); 3,4-methylenedioxy-6-nitrophenyl acetate (INV 75); 3,4-Methylenedioxy 6-nitro phenyl lipoate (INV-7465) or 3,4-Methylenedioxy phenyl lipoate (INV-7065). The other individuals receive the carrier alone. A new ultrasound analysis at the end of the treatment period indicates higher levels of plaque in the vessels of individuals receiving the carrier.

[3] = tested on: Human Umbilical Vein Endothelial Cells (HUVECs); assay: MTT cell toxicity assay; format: cell-based; details: HUVEC, dose range of 10 nM to 100 μM
Method: Cell Culture: All experiments were performed with cultured Human Umbilical Vein Endothelial Cells (HUVECs—Gibco, Invitrogen) and grown to confluence at 37° C. in a 5% CO2 humidified incubator, on tissue culture flasks previously coated with 1% gelatin in supplemented culture medium (M199 with 10% heat inactivated fetal calf serum, 100 U/ml penicillin, 100 μg/ml streptomycin, 2 mM glutamine, 10 mM HEPES, pH 7.4, heparin 12 I.U./ml, 1% retinal derived growth factor, Sigma). Following trypsin treatment, the cells were detached from the flasks and final mono-layers were prepared by seeding HUVECs on gelatin-precoated culture plates and then incubated for 24-48 h to ensure confluence. Cells up to the fourth passage were used for all experiments. Recombinant human TNF-α was purchased from R&D Systems (Minneapolis, Minn.).
Cell Toxicity Assays: Cellular toxicity was assessed by MTT [3-(4,5-dimethylthiazol-2-yl)-2,5-diphenyltetrazolium bromide] assay, a commercially available assay for assessment of cellular viability. INV-75 was added to HUVECs for 24 hours, and toxicity assays were performed at the end of this period. The MTT assay relies on the cellular reduction of positively charged tetrazolium salts to their intensely colored formazan product by mitochondrial dehydrogenases. Formazan production is decreased in the presence of impaired mitochondrial redox function and enhanced free radical production and may, therefore, be used as an index of cell viability responses to experimental interventions.
In short, after removing microtiter plates from the incubator, fresh medium containing a fixed volume of reconstituted MTT [3-(4,5-dimethylthiazol-2-yl)-2,5-diphenyltetrazlium bromide; final concentration: 0.5 mg/ml] was added to the wells; the plates were kept at 37° C. in a 5% CO2 environment for 2 h, and then the MTT solubilization solution provided by the manufacturer was added. The formazan product formed by the conversion of positively charged tetrazolium salts to the reduced state has low aqueous solubility and is present as purple crystals. Dissolving the formazan with a solubilization buffer (provided in kit) permits the convenient quantification of its formation. Optical density at OD 570 nm is then measured for each well on an absorbance plate reader. The within- and between-assay variability was 3 and 5%, respectively. Various concentrations of INV-75 was tested in cell based assays using the MTT assay, as described above. The concentrations tested ranged from 1 mM to 10 nM and the cells were exposed for over 24 hours in duration (FIG. 2).

Humans [4] = assay: Treatment of atherosclerosis in humans, primary prevention (Example 22); format: in vivo, human; details: oral, in excess of 12 months
Source text: Individuals with risk factors for atherosclerosis such as family history, hypertension and high cholesterol are known to be at risk for future cardiovascular events such as heart attacks and strokes. These individuals are on primary prevention treatments such as hypolipidemic drug therapy such as statins aspirin and anti-hypertensive agents such as ACE inhibitors, diuretics or calcium channel blockers. They also will receive an acceptable dose of a composition comprising a compound of the present invention in an acceptable carrier orally chronically for durations in excess of 12 months. In one study, 3,4-methylenedioxy phenyl acetate (INV 73); 3,4-methylenedioxy-6-nitrophenol (INV 74); 3,4-methylenedioxy-6-nitrophenyl acetate (INV 75); 3,4-Methylenedioxy 6-nitro phenyl lipoate (INV-7465) or 3,4-Methylenedioxy phenyl lipoate (INV-7065) are administered to these individuals. A repeat IVUS measurement is made at the end of the treatment period to assess the effect of the infusion of the composition on coronary atherosclerosis in the target vessel.

Patients [5] = assay: Treatment of dyslipidemia in diabetic patients (Example 25); format: in vivo, human; details: oral, 12 months
Source text: Individuals with Type I and Type II diabetes are at risk for future cardiovascular events such as heart attacks, strokes and kidney disease. These individuals often have abnormalities in lipids such as elevations in triglycerides and VLDL cholesterol. They are on treatments such as hypolipidemic drug therapy such as statins and fibrates (Gemfibrozil or Fenofibrate) to lover cholesterol levels in conjunction with glycemia lowering strategies such as Insulin, PPAR γ agents, Metformin or sulfonylurea therapy. In addition to these treatments they will also receive an acceptable dose of a composition comprising a compound of the present invention in an acceptable carrier orally chronically for durations in excess of 12 months. In one study, (3,4-methylenedioxy phenyl acetate (INV 73); 3,4-methylenedioxy-6-nitrophenol (INV 74); 3,4-methylenedioxy-6-nitrophenyl acetate (INV 75); are administered to these individuals. The patients undergo lipid measurements at baseline and at the end of treatment for a 12 month duration. At the end of 12 months of treatment, there is lowering of VLDL cholesterol and a decrease in triglycerides.

Patients [6] = assay: Treatment of patients with Type I and Type II diabetes (Example 24); format: in vivo, human; details: diabetic patients, oral, 12 months
Source text: Individuals with Type I and Type II diabetes are at risk for future cardiovascular events such as heart attacks, strokes and kidney disease. These individuals are on prevention treatments such as hypolipidemic drug therapy such as statins and anti-hypertensive agents such as ACE inhibitors. They are already receiving glycemia lowering strategies such as Insulin, PPARγ agents, Metformin or sulfonylurea therapy. They also will receive an acceptable dose of a composition comprising a compound of the present invention in an acceptable carrier orally chronically for durations in excess of 12 months. In one study, 3,4-Methylenedioxy 6-nitro phenyl lipoate (INV-7465) or 3,4-Methylenedioxy phenyl lipoate (INV-7065) are administered to these individuals. The patients undergo the following measurements: HbA1C to assess glycemic control, urinary microalbuminura, blood pressure and lipid measurements. At the end of 12 months of treatment, there is lowering of HbA1C and urinary microalbuminuria. There is an improvement in VLDL cholesterol and a decrease in triglycerides with any of these treatments [(3,4-methylenedioxy phenyl acetate (INV 73); 3,4-methylenedioxy-6-nitrophenol (INV 74); 3,4-methylenedioxy-6-nitrophenyl acetate (INV 75); 3,4-Methylenedioxy 6-nitro phenyl lipoate (INV-7465) or 3,4-Methylenedioxy phenyl lipoate (INV-7065)].

| SMILES | plaque in the atherosclerotic coronary artery (IVUS) (Humans [1]) | preventing or reducing atherosclerosis (ultrasound, versus carrier alone) (Humans [2]) | cell toxicity results compared with those of INV-75 [3] | plaque in the atherosclerotic coronary artery (IVUS) (Humans [4]) | VLDL cholesterol (Patients [5]) | triglycerides (Patients [5]) | VLDL cholesterol (Patients [6]) | triglycerides (Patients [6]) |
| --- | --- | --- | --- | --- | --- | --- | --- | --- |
| CC(=O)Oc1ccc2c(c1)OCO2 [INV-73, 3,4-Methylenedioxyphenyl acetate] | reduced | effective | identical | reduced | lowering | decrease | improvement | decrease |
| O=[N+]([O-])c1cc2c(cc1O)OCO2 [INV-74, 3,4-Methylenedioxy-6-nitrophenol] | reduced | effective | identical | reduced | lowering | decrease | improvement | decrease |
